From patent publication US9512111B2, “N-sulfonylated tetrahydroquinolines and related bicyclic compounds for inhibition of RORγ activity and the treatment of disease” (Lycera Corporation, priority 2010, dated 2016)

Columns and labels:
RORγ-LBD = target: T1, RORγ-LBD (Homo sapiens, UniProt P51449); assay: RORγ-Ligand Binding Domain TR-FRET Assay; type: biochemical; conditions: benzoxazines, Table 9
T1 construct: HIS-tagged RORγ-LBD was recombinantly expressed in SF9 cells; made in house; host or cells: SF9 cells (baculovirus); unpurified lysate
T1 sequence (P51449 269-508 limits assumed): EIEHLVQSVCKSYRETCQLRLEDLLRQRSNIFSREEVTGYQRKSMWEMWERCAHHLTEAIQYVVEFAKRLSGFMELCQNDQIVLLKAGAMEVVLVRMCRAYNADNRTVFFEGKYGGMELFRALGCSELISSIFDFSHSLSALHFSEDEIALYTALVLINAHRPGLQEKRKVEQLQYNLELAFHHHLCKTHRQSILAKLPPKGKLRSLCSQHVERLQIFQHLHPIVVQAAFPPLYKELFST
Summary of the method: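 Unpurified His-tagged LBD in Sf9 lysate (~10 nM final) in 25 mM HEPES pH 7.0, 100 mM NaCl, 0.01% Tween, 0.1% BSA, with biotinylated SRC1-2 LXXLL peptide (450 nM), Eu anti-His (2 nM) and streptavidin-APC (60 nM). Incubated 4 h to overnight; IC50 from 665/615 nm TR-FRET ratio.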

RORγt = target: T2, RORγt (Homo sapiens, UniProt P51449); assay: RORγ Reporter Assay (GAL4-UAS luciferase reporter in HEK293 cells); type: cell-based; conditions: benzoxazines, Table 9; HEK cells
T2 construct: The resulting GAL4-RORγt-LBD fusion construct was placed under the control of a constitutive cytomegalovirus (CMV) promoter; expressed in transfected cells; host or cells: HEK293
T2 sequence (P51449 269-508 limits assumed): T1 sequence (P51449 269-508 limits assumed)
Procedure: Inhibition of RORγt in cells was determined using a GAL4-UAS reporter system in HEK293 cells employing a luciferase readout. The RORγt DNA binding domain (DBD) was replaced with the heterologous yeast GAL4 DBD using standard recombinant DNA methods. The resulting GAL4-RORγt-LBD fusion construct was placed under the control of a constitutive cytomegalovirus (CMV) promoter by cloning it into the CMV-driven mammalian expression vector pcDNA3.1+− (Promega Corporation, Madison, Wis.).
A transcriptional reporter expression construct was used to monitor GAL4-RORγ activity, which contained five copies of the GAL4 binding site enhancer (UAS) controlling expression of a firefly luciferase reporter. This construct, pGL4.31, is commercially available from Promega Corporation, Madison Wis. Both expression constructs were transfected in bulk into HEK-293 cells using standard lipid-based transfection techniques, which allowed the GAL4 RORγ-LBD fusion protein to drive expression of the luciferase reporter. Control transfections were performed with an empty pCDN3.1+ vector.
The next day, cells were plated into 384 well plates, test compound was added, and the plates were incubated overnight. […] Promega firefly assays kits were used to stabilize the luciferase signal, and the intensity of the luciferase signal was measured using an EnVision Multilabel Plate Reader (Perkin Elmer, Waltham, Mass.).
HEK 293 cells are transfected with GAL4-NR construct (CMV:NR-LBD in pcDNA3.1neo) and the pGL4.31 GAL4-luciferase reporter construct (Promega). For a background control, use empty pcDNA3.1neo and pGL4.31. Transfection protocol is for a single T75 flask performed with Minis Trans-It 293 reagent. A 60 μL aliquot of Trans-IT reagent at room temperature is added drop wise to 1.5 mL of Optimem (Invitrogen). The resulting solution is mixed by inversion and incubated for 5-20 minutes at room temperature. This reagent mixture is added to 10 μg of DNA (5 μg of each expression vector used at a concentration of 1 mg/mL). The solution is mixed by inversion and incubated at room temperature for 20 minutes.
While the Trans-IT reagent and DNA are incubating, harvest HEK-293 cells. Remove media from flasks via aspiration and add enough TrypLE Express (stable Trypsin-like reagent, Invitrogen) to cover the bottom of the flask. The mixture is incubated at room temperature until the cells are visibly loose in the flask (approximately 2-5 minutes). Add an equal volume of complete growth media, and then pipette to achieve a single cell suspension. Spin down 1×10^7 cells and re-suspend the cells in 10 mL of complete growth media (DMEM high glucose/10% dialyzed FBS/pen/strep; Invitrogen). The cells and transfection mixture are added to one T75 flask. The contents of the T75 flax are mixed and incubated overnight at 37° C. and 5% CO2.
After 16-24 hours, cells are harvested and plated for test compound screening. Cells may be harvested as described above. Next, cells are counted and an appropriate number of cells are spun down. Then, cells are aspirated and re-suspended in complete growth media at a concentration of 0.5×10^6 cells/mL to provide a cell suspension. Plate 20 μL of the cell suspension into a white, tissue-culture treated 384 well plate. (10,000 cells/well).
A 10 mM stock solution of test compound in dimethylsulfoxide (DMSO) was diluted to 500× the final test concentration in DMSO, then diluted to 5× the final test concentration with complete growth medium to provide the Test Compound Solution. The concentration of DMSO in the Test Compound Solution was […]. A 5 μL aliquot of Test Compound Solution was added to each test well in the 384 well plate previously plated with the cell suspension. Next, plates are spun briefly and incubated overnight at 37° C. and 5% CO2.
After 16-24 hours, the luciferase assay is performed. Plates and luciferase reagent (e.g. One-Glo® or Dual Glo®; Promega, Madison, Wis.) are brought to room temperature.

Structure (SMILES)	IC50 (RORγ-LBD) [µM]	IC50 (RORγt) [µM]
CCOCC1CN(S(=O)(=O)c2ccc(F)cc2)c2cc(NC(=O)c3c(Cl)cccc3C(F)(F)F)ccc2O1 (stereo not shown) [Compound 15, 2-Chloro-N-[2-ethoxymethyl-4-(4-fluoro-benzenesulfonyl)-3,4-dihydro-2H-benzo[1,4]oxazin-6-yl]-6-trifluoromethyl-benzamide]	< 15	< 15
CCOCC1CN(S(=O)(=O)c2ccc(Cl)cc2)c2cc(NC(=O)c3c(F)cccc3Cl)ccc2O1 (stereo not shown) [VI-93]	< 15	< 15
Cc1cccc(C)c1C(=O)Nc1ccc2c(c1)N(S(=O)(=O)c1ccc(F)cc1)C[C@H](CO)O2 [VI-49]	< 15	< 15
COc1ccc(S(=O)(=O)N2C[C@H](CO)Oc3ccc(NC(=O)c4c(C)cccc4Cl)cc32)cn1 [VI-27]	< 15	< 15
O=C(Nc1ccc2c(c1)N(S(=O)(=O)c1ccc(F)cc1)C[C@H](CO)O2)c1c(F)cccc1F [VI-114]	< 15	< 15
COCC1CN(S(=O)(=O)c2cccc(C#N)c2)c2cc(NC(=O)c3c(F)cccc3Cl)ccc2O1 (stereo not shown) [VI-101]	< 15	< 15
CCOCC1CN(S(=O)(=O)c2ccc(F)cc2)c2cc(NC(=O)c3c(Cl)cccc3Cl)ccc2O1 (stereo not shown) [VI-108]	< 15	< 15
N#Cc1cccc(S(=O)(=O)N2C[C@H](CN3CCCC3)Oc3ccc(NC(=O)c4c(F)cccc4Cl)cc32)c1 [Compound 21, (S)-2-Chloro-N-(4-((3-cyanophenyl)sulfonyl)-2-(pyrrolidin-1-ylmethyl)-3,4-dihydro-2H-benzo[b][1,4]oxazin-6-yl)-6-fluorobenzamide]	< 15	< 15
COCC1CN(S(=O)(=O)c2ccc(Cl)cc2)c2cc(NC(=O)c3c(Cl)cccc3C(F)(F)F)ccc2O1 (stereo not shown) [VI-91]	< 15	< 15
O=C(Nc1ccc2c(c1)N(S(=O)(=O)c1ccc(F)c(F)c1)C[C@@H](CO)O2)c1c(F)cccc1F [VI-76]	< 15	< 15
CC1(C)CN(S(=O)(=O)c2ccc(F)cc2)c2cc(NC(=O)c3c(F)cccc3C(F)(F)F)ccc2O1 [VI-124]	< 15	< 15
C[C@H]1CN(S(=O)(=O)c2ccc(F)cc2)c2cc(NC(=O)c3c(F)cccc3Cl)ccc2O1 [VI-1]	< 15	< 15

Other lines, results leading:

IC50 (RORγ-LBD) [µM]	IC50 (RORγt) [µM]	Structure (SMILES)
< 15	< 15	COCC1CN(S(=O)(=O)c2ccc(F)cc2)c2cc(NC(=O)c3c(F)cccc3Cl)c(F)cc2O1 (stereo not shown) [Compound 12, 2-Chloro-6-fluoro-N-[7-fluoro-4-(4-fluorobenzenesulfonyl)-2-methoxymethyl-3,4-dihydro-2H-benzo[1,4]oxazin-6-yl]benzamide]
< 15	< 15	COCC1CN(S(=O)(=O)c2cccc(C#N)c2)c2cc(NC(=O)c3c(F)cccc3F)ccc2O1 (stereo not shown) [VI-103]
< 15	< 15	COCC1CN(S(=O)(=O)c2ccc(Cl)cc2)c2cc(NC(=O)c3c(Cl)cccc3Cl)ccc2O1 (stereo not shown) [VI-95]
< 15	< 15	Cc1nn(C(F)F)cc1S(=O)(=O)N1C[C@H](CO)Oc2ccc(NC(=O)c3c(F)cccc3Cl)cc21 [VI-30]
< 15	< 15	COCC1CN(S(=O)(=O)c2ccc(F)cc2)c2cc(NC(=O)c3c(F)cccc3F)ccc2O1 (stereo not shown) [VI-113]
< 15	< 15	O=C(Nc1ccc2c(c1)N(S(=O)(=O)c1ccc(F)cc1)CCO2)c1c(Cl)cccc1Cl [VI-129]
< 15	< 15	O=C(Nc1ccc2c(c1)N(S(=O)(=O)c1ccc(Cl)cc1)C[C@H](CO)O2)c1c(F)cccc1Cl [VI-86]
< 15	< 15	COCC1CN(S(=O)(=O)c2ccc(F)c(F)c2)c2cc(NC(=O)c3c(F)cccc3Cl)ccc2O1 (stereo not shown) [VI-80]
< 15	< 15	Cc1cccc(Cl)c1C(=O)Nc1ccc2c(c1)N(S(=O)(=O)c1ccc(F)cc1)C[C@H](CO)O2 [VI-48]
< 15	< 15	O=C(Nc1ccc2c(c1)N(S(=O)(=O)c1ccc(F)cc1)C[C@H](CO)O2)c1c(F)cccc1C(F)(F)F [VI-82]
< 15	< 15	N#Cc1cccc(S(=O)(=O)N2C[C@H](CO)Oc3ccc(NC(=O)c4c(F)cccc4C(F)(F)F)cc32)c1 [VI-62]
